Data reported in paper PMC10367113 (Nature chemical biology, 2022).

Experiments:
Type in all cases: biochemical
Bl_Man38B = molecular target: T1, Bl_Man38B (Bifidobacterium longum, UniProt Q8G4Q0); assay: LC-MS hydrolysis kinetics; conditions: pH 5.5, 37 °C, 0.1 mM CoCl2
T1 sequence (Q8G4Q0 1-1046): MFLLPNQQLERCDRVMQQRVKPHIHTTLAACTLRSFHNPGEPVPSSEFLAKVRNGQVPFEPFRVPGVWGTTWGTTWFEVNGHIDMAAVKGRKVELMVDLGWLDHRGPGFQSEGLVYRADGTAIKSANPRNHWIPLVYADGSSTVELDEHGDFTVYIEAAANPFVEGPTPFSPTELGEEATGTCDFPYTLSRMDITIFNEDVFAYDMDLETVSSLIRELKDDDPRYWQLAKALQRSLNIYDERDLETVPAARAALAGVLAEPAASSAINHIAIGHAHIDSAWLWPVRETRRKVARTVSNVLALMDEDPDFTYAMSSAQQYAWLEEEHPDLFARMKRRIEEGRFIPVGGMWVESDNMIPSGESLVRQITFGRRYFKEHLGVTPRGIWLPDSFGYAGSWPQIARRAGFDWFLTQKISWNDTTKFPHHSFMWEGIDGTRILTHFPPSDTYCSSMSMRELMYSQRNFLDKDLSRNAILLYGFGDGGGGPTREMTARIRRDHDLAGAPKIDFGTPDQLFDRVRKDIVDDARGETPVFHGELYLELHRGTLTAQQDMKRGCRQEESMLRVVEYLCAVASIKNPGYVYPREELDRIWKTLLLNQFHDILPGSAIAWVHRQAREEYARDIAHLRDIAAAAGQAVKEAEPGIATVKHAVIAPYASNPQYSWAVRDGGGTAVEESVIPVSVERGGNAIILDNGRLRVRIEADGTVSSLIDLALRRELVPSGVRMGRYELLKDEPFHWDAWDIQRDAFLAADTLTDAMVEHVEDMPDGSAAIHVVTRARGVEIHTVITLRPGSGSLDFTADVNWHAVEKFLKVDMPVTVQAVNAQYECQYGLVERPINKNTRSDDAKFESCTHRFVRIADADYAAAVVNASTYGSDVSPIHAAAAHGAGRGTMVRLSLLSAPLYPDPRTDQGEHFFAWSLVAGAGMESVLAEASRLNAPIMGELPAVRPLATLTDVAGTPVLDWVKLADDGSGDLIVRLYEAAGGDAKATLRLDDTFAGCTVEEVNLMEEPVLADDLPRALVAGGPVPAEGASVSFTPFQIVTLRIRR

Bl_Man125 = molecular target: T2, Bl_Man125 (Bifidobacterium longum, UniProt Q8G4P0); assay: LC-MS hydrolysis kinetics; conditions: pH 5.5, 37 °C
T2 sequence (Q8G4P0 1-432): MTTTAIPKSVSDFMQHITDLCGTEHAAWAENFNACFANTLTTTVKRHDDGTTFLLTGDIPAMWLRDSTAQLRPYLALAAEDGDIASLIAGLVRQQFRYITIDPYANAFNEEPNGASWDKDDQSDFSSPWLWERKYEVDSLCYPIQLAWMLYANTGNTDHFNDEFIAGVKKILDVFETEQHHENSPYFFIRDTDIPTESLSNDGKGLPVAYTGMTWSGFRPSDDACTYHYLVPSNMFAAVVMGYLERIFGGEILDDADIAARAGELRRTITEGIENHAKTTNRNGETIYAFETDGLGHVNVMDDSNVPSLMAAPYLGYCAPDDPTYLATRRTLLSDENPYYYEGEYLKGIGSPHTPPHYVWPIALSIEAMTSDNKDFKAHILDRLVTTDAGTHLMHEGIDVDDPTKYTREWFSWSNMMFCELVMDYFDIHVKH

Bl_Glc31 = Bl_Glc31 (Bifidobacterium longum, UniProt Q8G4P4); assay: LC-MS; conditions: product Man9GlcNAc
Bl_Man38C = molecular target: T3, Bl_Man38C (Bifidobacterium longum, UniProt Q8G4P9); assay: LC-MS hydrolysis kinetics; conditions: pH 5.5, 37 °C, 0.1 mM CoCl2
T3 sequence (Q8G4P9 1-1034): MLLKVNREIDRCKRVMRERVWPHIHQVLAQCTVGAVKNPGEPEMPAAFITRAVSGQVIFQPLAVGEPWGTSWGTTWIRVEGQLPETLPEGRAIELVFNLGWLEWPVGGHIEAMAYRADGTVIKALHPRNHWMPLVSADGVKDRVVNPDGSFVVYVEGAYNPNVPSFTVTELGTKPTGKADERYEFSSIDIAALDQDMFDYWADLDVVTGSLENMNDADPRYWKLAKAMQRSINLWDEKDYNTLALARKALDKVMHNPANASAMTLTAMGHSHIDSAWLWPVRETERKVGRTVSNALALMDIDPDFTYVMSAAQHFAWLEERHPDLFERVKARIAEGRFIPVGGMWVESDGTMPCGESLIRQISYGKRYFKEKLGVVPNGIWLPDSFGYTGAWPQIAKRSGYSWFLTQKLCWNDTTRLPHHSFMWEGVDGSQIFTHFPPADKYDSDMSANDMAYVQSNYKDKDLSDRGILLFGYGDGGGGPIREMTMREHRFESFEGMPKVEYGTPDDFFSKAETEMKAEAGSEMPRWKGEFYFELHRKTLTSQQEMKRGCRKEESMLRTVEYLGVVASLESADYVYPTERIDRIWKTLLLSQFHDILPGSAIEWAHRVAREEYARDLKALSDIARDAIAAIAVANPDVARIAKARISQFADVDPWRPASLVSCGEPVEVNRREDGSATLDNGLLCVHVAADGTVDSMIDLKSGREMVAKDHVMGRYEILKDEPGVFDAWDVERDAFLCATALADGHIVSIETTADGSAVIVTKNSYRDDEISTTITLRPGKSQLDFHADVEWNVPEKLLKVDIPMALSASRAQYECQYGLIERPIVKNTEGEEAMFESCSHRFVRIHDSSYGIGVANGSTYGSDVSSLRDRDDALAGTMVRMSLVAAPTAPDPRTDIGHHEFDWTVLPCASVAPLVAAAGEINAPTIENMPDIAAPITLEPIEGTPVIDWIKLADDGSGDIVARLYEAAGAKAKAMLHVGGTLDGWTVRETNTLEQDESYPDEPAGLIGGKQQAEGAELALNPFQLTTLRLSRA

Bl_Endo85 = molecular target: T4, Bl_Endo85 (Bifidobacterium longum, UniProt Q8G4P3); assay: LC-MS; conditions: 150 mM ammonium acetate pH 5.0, 37 °C, 16 h; product GlcMan9GlcNAc
T4 sequence (Q8G4P3 38-937): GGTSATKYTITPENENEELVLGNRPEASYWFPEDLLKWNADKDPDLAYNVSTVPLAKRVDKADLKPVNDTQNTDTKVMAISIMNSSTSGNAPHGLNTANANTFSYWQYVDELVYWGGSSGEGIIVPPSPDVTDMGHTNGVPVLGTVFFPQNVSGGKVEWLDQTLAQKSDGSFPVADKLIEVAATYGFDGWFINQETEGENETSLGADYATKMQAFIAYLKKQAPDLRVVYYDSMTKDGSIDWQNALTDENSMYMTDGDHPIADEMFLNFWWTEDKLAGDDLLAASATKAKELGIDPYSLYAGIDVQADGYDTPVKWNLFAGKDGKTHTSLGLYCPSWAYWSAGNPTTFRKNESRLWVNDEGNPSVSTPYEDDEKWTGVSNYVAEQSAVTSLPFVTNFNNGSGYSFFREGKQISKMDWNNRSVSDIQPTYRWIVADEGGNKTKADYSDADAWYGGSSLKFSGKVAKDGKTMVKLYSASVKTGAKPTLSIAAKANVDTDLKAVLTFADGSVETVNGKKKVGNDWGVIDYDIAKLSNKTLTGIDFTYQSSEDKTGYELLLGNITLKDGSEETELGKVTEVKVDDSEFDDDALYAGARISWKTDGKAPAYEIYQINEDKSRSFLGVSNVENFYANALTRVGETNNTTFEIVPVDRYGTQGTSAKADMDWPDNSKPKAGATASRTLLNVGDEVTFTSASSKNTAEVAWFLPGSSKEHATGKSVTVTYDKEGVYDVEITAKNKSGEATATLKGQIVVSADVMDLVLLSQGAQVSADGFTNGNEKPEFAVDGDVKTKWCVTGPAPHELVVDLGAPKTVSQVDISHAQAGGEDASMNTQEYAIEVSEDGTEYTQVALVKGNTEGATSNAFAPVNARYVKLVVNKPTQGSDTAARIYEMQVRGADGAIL

For `OC[C@H]1O[C@H](OC[C@H]2OC(O)[C@@H](O)[C@@H](O)[C@@H]2O)[C@@H](O)[C@@H](O)[C@@H]1O` (stereo partly drawn) [α-1,6-mannobiose], the Km (Bl_Man38B) was “Bl_Man38B was efficient over the three disaccharides” and the Km (Bl_Man125) was “Bl_Man125 was shown to be strictly an α-1,6-mannosidase”.

For `CC(=O)N[C@H]1C(O)O[C@H](CO)[C@@H](O[C@@H]2O[C@H](CO[C@H]3O[C@H](CO[C@H]4O[C@H](CO)[C@@H](O)[C@H](O)[C@@H]4O[C@H]4O[C@H](CO)[C@@H](O)[C@H](O)[C@@H]4O)[C@@H](O)[C@H](O[C@H]4O[C@H](CO)[C@@H](O)[C@H](O)[C@@H]4O[C@H]4O[C@H](CO)[C@@H](O)[C@H](O)[C@@H]4O)[C@@H]3O)[C@@H](O)[C@H](O[C@H]3O[C@H](CO)[C@@H](O)[C@H](O)[C@@H]3O[C@H]3O[C@H](CO)[C@@H](O)[C@H](O)[C@@H]3O[C@H]3O[C@H](CO)[C@@H](O)[C@H](O[C@H]4O[C@H](CO)[C@@H](O)[C@H](O)[C@H]4O)[C@@H]3O)[C@@H]2O)[C@@H]1O` (some centres unmarked) [GlcMan9GlcNAc], the LC-MS (Bl_Glc31) was “Bl_Glc31 can specifically cleave GlcMan9GlcNAc, generating only Man9GlcNAc”.

For `OC[C@H]1O[C@H](O[C@@H]2C(O)O[C@H](CO)[C@@H](O)[C@@H]2O)[C@@H](O)[C@@H](O)[C@@H]1O` (stereo partly drawn) [α-1,2-mannobiose], the Km (Bl_Man38C) was “Bl_Man38C presents a clear preference for α-1,2-mannobiose”.

With `CC(=O)N[C@H]1[C@H](O[C@H]2[C@H](O)[C@@H](NC(C)=O)C(O)O[C@@H]2CO)O[C@H](CO)[C@@H](O[C@@H]2O[C@H](CO[C@H]3O[C@H](CO[C@H]4O[C@H](CO)[C@@H](O)[C@H](O)[C@@H]4O[C@H]4O[C@H](CO)[C@@H](O)[C@H](O)[C@@H]4O)[C@@H](O)[C@H](O[C@H]4O[C@H](CO)[C@@H](O)[C@H](O)[C@@H]4O[C@H]4O[C@H](CO)[C@@H](O)[C@H](O)[C@@H]4O)[C@@H]3O)[C@@H](O)[C@H](O[C@H]3O[C@H](CO)[C@@H](O)[C@H](O)[C@@H]3O[C@H]3O[C@H](CO)[C@@H](O)[C@H](O)[C@@H]3O[C@H]3O[C@H](CO)[C@@H](O)[C@H](O[C@H]4O[C@H](CO)[C@@H](O)[C@H](O)[C@H]4O)[C@@H]3O)[C@@H]2O)[C@@H]1O` (some centres unmarked) [GlcMan9GlcNAc2] the LC-MS (Bl_Endo85) was “Reaction of Bl_Endo85 against GlcMan9GlcNAc2, generating GlcMan9GlcNAc”.
